# ChEMBL document CHEMBL3992552, “Mechanisms of action and structure-activity relationships of cytotoxic flavokawain derivatives” (Bioorg Med Chem, 2017)
# Activity calls are given as the source filed them. The calls are words filed in the database; no cut-off is given here.
# Legend:
# [1] = tested on: MDA-MB-231; experiment: Cell cycle arrest in human MDA-MB-231 cells harboring p53 mutant assessed as accumulation at S phase at 10 uM measured after 48 hrs by Hoechst/BrdU staining based fluorescence assay (reference value: 42.2%); type: functional
# [2] = tested on: MCF7; experiment: Induction of apoptosis in human MCF7 cells harboring wild-type p53 assessed as upregulation of cyclinB1 measured after 18 hrs by Hoechst staining based assay; type: functional, cell-based
# [3] = tested on: PC-3; experiment: Cell cycle arrest in human PC3 cells assessed as accumulation at M phase by Hoechst staining based fluorescence assay; type: functional
# [4] = tested on: NCI-H727; experiment: Cell cycle arrest in human NCI-H727 cells harboring p53 mutant assessed as mitotic index at 10 uM measured after 48 hrs by Hoechst staining based fluorescence assay (reference value: 1.1); type: functional
# [5] = tested on: HaCaT; experiment: Cell cycle arrest in human HaCaT cells harboring […] p53 assessed as accumulation at S phase at 10 uM measured after 48 hrs by Hoechst/BrdU staining based fluorescence assay (reference value: 52.3%); type: functional
# [6] = tested on: Caco-2; experiment: Cytotoxicity against human Caco2 cells assessed as cell survival at 50 uM after 48 hrs by Hoechst 33342 staining based assay relative to control; type: functional; conditions: Caco-2, 48 h, read-out: Survival
# [7] = tested on: NCI-H727; experiment: Cytotoxicity against human NCI-H727 cells assessed as cell viability after 48 hrs by Hoechst 33342 staining based assay; type: functional; conditions: NCI-H727, 48 h
# [8] = tested on: PC-3; experiment: Induction of apoptosis in human PC3 cells harboring p53 mutant assessed as increase in late apoptosis at 2 times IC50 after 48 hrs by YoPro/propidium iodide/Hoechst staining based assay; type: functional, cell-based
# [9] = tested on: PC-3; experiment: Cell cycle arrest in human PC3 cells harboring p53 mutant assessed as accumulation at S phase at 10 uM measured after 48 hrs by Hoechst/BrdU staining based fluorescence assay (reference value: 40.8%); type: functional
# [10] = tested on: Huh-7; experiment: Cell cycle arrest in human HuH7 cells assessed as mitotic index at 25 uM measured after 48 hrs by Hoechst staining based fluorescence assay (reference value: 2.2); type: functional
# [11] = Selectivity index, ratio of IC50 for human fibroblasts to IC50 for human Caco2 cells
# [12] = Selectivity index, ratio of IC50 for human fibroblasts to IC50 for human NCI-H727 cells
# [13] = tested on: PC-3; experiment: Induction of apoptosis in human PC3 cells harboring p53 mutant assessed as upregulation of cyclinB1 after 48 hrs by Hoechst staining based assay; type: functional, cell-based
# [14] = tested on: HCT-116; experiment: Induction of apoptosis in human HCT116 cells harboring wild-type p53 assessed as upregulation of p21 measured after 48 hrs by Hoechst staining based fluorescence assay; type: functional, cell-based
# [15] = tested on: HCT-116; experiment: Induction of apoptosis in human HCT116 cells harboring wild-type p53 assessed as increase in late apoptosis at 2 times IC50 after 48 hrs by YoPro/propidium iodide/Hoechst staining based assay; type: functional, cell-based
# [16] = tested on: NCI-H727; experiment: Cytotoxicity against human NCI-H727 cells assessed as cell survival at 50 uM after 48 hrs by Hoechst 33342 staining based assay relative to control; type: functional; conditions: NCI-H727, 48 h, read-out: Survival
# [17] = tested on: HCT-116; experiment: Induction of apoptosis in human HCT116 cells harboring wild-type p53 assessed as upregulation of cyclinB1 measured after 48 hrs by Hoechst staining based assay; type: functional, cell-based
# [18] = tested on: MDA-MB-231; experiment: Cell cycle arrest in human MDA-MB-231 cells harboring p53 mutant assessed as accumulation at S phase at 25 uM measured after 48 hrs by Hoechst/BrdU staining based fluorescence assay (reference value: 42.2%); type: functional
# [19] = tested on: MDA-MB-231; experiment: Cell cycle arrest in human MDA-MB-231 cells harboring p53 mutant assessed as mitotic index at 10 uM measured after 48 hrs by Hoechst staining based fluorescence assay (reference value: 2.1); type: functional
# [20] = tested on: MDA-MB-231; experiment: Cell cycle arrest in human MDA-MB-231 cells harboring p53 mutant assessed as mitotic index at 25 uM measured after 48 hrs by Hoechst staining based fluorescence assay (reference value: 2.1); type: functional
# [21] = tested on: Fibroblast; experiment: Cytotoxicity against human fibroblasts assessed as cell viability after 48 hrs by Hoechst 33342 staining based assay
# [22] = Selectivity index, ratio of IC50 for human fibroblasts to IC50 for human MCF7 cells
# [23] = tested on: MDA-MB-231; experiment: Induction of apoptosis in human MDA-MB-231 cells harboring p53 mutant assessed as increase in cleaved caspase3 at 2 times IC50 after 24 hrs by Hoechst staining based assay; type: functional, cell-based
# [24] = Selectivity index, ratio of IC50 for human fibroblasts to IC50 for human MDA-MB-231 cells
# [25] = tested on: HCT-116; experiment: Induction of apoptosis in human HCT116 cells harboring wild-type p53 assessed as increase in early apoptosis at 2 times IC50 after 48 hrs by YoPro/propidium iodide/Hoechst staining based assay; type: functional, cell-based
# [26] = Selectivity index, ratio of IC50 for human fibroblasts to IC50 for human RL cells
# [27] = tested on: MDA-MB-231; experiment: Induction of apoptosis in human MDA-MB-231 cells harboring p53 mutant assessed as increase in early apoptosis at 2 times IC50 after 24 hrs by YoPro/propidium iodide/Hoechst staining based assay; type: functional, cell-based
# [28] = tested on: NCI-H727; experiment: Cell cycle arrest in human NCI-H727 cells harboring p53 mutant assessed as accumulation at S phase at 10 uM measured after 48 hrs by Hoechst/BrdU staining based fluorescence assay (reference value: 40.3%); type: functional
# [29] = Selectivity index, ratio of IC50 for human fibroblasts to IC50 for human HaCaT cells
# [30] = tested on: Huh-7; experiment: Cell cycle arrest in human HuH7 cells assessed as accumulation at S phase at 25 uM measured after 48 hrs by Hoechst/BrdU staining based fluorescence assay (reference value: 44%); type: functional
# [31] = tested on: Caco-2; experiment: Cell cycle arrest in human Caco2 cells assessed as accumulation at M phase by Hoechst staining based fluorescence assay; type: functional
# [32] = tested on: NCI-H727; experiment: Cell cycle arrest in human NCI-H727 cells assessed as accumulation at G1/S phase by Hoechst staining based fluorescence assay; type: functional
# [33] = tested on: HCT-116; experiment: Cell cycle arrest in human HCT116 cells harboring wild-type p53 assessed as mitotic index at 25 uM measured after 48 hrs by Hoechst staining based fluorescence assay (reference value: 2.3); type: functional
# [34] = tested on: PC-3; experiment: Induction of apoptosis in human PC3 cells harboring p53 mutant assessed as increase in cleaved caspase3 at 2 times IC50 after 48 hrs by Hoechst staining based assay; type: functional, cell-based
# [35] = tested on: PC-3; experiment: Cell cycle arrest in human PC3 cells harboring p53 mutant assessed as mitotic index at 25 uM measured after 48 hrs by Hoechst staining based fluorescence assay (reference value: 2.5); type: functional
# [36] = tested on: NCI-H727; experiment: Cell cycle arrest in human NCI-H727 cells harboring p53 mutant assessed as mitotic index at 25 uM measured after 48 hrs by Hoechst staining based fluorescence assay (reference value: 1.1); type: functional
# [37] = tested on: RL; experiment: Cytotoxicity against human RL assessed as cell viability after 48 hrs by Hoechst 33342 staining based assay; type: functional
# [38] = Selectivity index, ratio of IC50 for human fibroblasts to IC50 for human HuH7 cells
# [39] = tested on: MDA-MB-231; experiment: Cell cycle arrest in human MDA-MB-231 cells assessed as accumulation at M phase by Hoechst staining based fluorescence assay; type: functional
# [40] = tested on: HCT-116; experiment: Cytotoxicity against human HCT116 cells assessed as cell viability after 48 hrs by Hoechst 33342 staining based assay; type: functional; conditions: HCT-116, 48 h
SMILES,Activity [1] [%],Activity [2],Activity_index [4],Activity [5] [%],viability at 50 µM [6] [%],IC50 [7] [µM],Activity [8],Activity [9] [%],Activity_index [10],Ratio IC50 [11],Ratio IC50 [12],Activity [13],Activity [14],Activity [15],viability at 50 µM [16] [%],Activity [17],Activity [18] [%],Activity_index [19],Activity_index [20],IC50 [21] [µM],also measured
COc1cc(OC)c(C(=O)/C=C/c2ccccc2)c(OC)c1,37,Active,1.3,18,5,11.4,Active,24,0.6,>8.6,>4.4,Active,Active,Active,1,Active,23,21,13.2,> 20,Activity [3]: Active; Ratio IC50 [22]: >5.3; Activity [23]: Active; Ratio IC50 [24]: >3.9; Activity [25]: Active; Ratio IC50 [26]: >7.2; Activity [27]: Active; Activity [28]: 34%; Ratio IC50 [29]: >6.9; Activity [30]: 0.7%; Activity [31]: Active; Activity [32]: Active; Activity_index [33]: 0.8; Activity [34]: Active; Activity_index [35]: 1.2; Activity_index [36]: 0.2; IC50 [37]: 6.9 µM; Ratio IC50 [38]: >3.2; Activity [39]: Active; IC50 [40]: 6.9 µM
COc1cccc(/C=C/C(=O)c2c(O)cc(OC)cc2OC)c1,54,Active,1.2,49,1,14.8,Active,39,0.1,2.4,1.8,Active,Active,Active,1,Active,38,4.2,3.6,> 20,Activity [3]: Active; Ratio IC50 [22]: 2.6; Activity [23]: Active; Ratio IC50 [24]: 2; Activity [25]: Active; Ratio IC50 [26]: 3; Activity [27]: Active; Activity [28]: 35%; Ratio IC50 [29]: 2.6; Activity [30]: 8.5%; Activity [31]: Active; Activity [32]: Active; Activity_index [33]: 0.3; Activity [34]: Active; Activity_index [35]: 0.4; Activity_index [36]: 0.1; IC50 [37]: 9 µM; Ratio IC50 [38]: 1.8; Activity [39]: Active; IC50 [40]: 7.7 µM
COc1cc(O)c(C(=O)/C=C/c2ccccc2)c(OC)c1 [FLAVOKAWAIN B],54,Active,0.8,50,1,11.3,Active,35,1.7,2.7,2.3,Active,Active,Active,2,Active,40,5.2,6.8,> 20,Ratio IC50 [22]: 1.7; Activity [23]: Active; Ratio IC50 [24]: 1.6; Activity [25]: Active; Ratio IC50 [26]: 3.2; Activity [27]: Active; Activity [28]: 39%; Ratio IC50 [29]: 1.9; Activity [30]: 30%; Activity [31]: Active; Activity [32]: Active; Activity_index [33]: 0.6; Activity [34]: Active; Activity_index [35]: 2; Activity_index [36]: 0.2; IC50 [37]: 8.2 µM; Ratio IC50 [38]: 1.7; Activity [39]: Active; IC50 [40]: 7.5 µM
